The subject of this assay is Endogenous Huntingtin Protein. The assay can be described thus: Endogenous Huntingtin Protein Assay (ELISA-based Meso Scale Discovery electrochemiluminescence). The assay is classed as cell-based. The settings on record: MSD electrochemiluminescence, Table 1. Put shortly: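 Sandwich MSD electrochemiluminescence immunoassay. Capture used MW1 (expanded polyglutamine) or MAB2166 antibody coated at 1 μg/mL overnight at 4 °C. Samples were bound overnight at 4 °C, then a rabbit monoclonal detection antibody and SULFO-TAG anti-rabbit, each at 0.25 μg/mL, were applied for 1 h at room temperature.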
(In an ELISA, binding on a coated surface is turned into a signal by an enzyme label.)
One may read the IC50 as the midpoint of a concentration-inhibition curve. `Oc1cc(-c2cn[nH]c2)ccc1-c1cnc(N2CCC(NC3CCC(F)(F)C3)C2)nn1` (centres unmarked) [Cpd 409, 2-(3-{3-[(3,3-difluorocyclopentyl)amino]pyrrolidin-1-yl}-1,2,4-triazin-6-yl)-5-(1H-pyrazol-4-yl)phenol] returned an IC50 of no more than 0.1 µM. On to `CN(c1ncc(-c2ccc(-c3cn[nH]c3)cc2O)nn1)C1CC(C)(C)NC(C)(C)C1F` (centres unmarked) [Cpd 67, 2-{3-[(3-fluoro-2,2,6,6-tetramethylpiperidin-4-yl)(methyl)amino]-1,2,4-triazin-6-yl}-5-(1H-pyrazol-4-yl)phenol], for which the IC50 was in the range of 0.1 to 0.5 µM. The figure for `Cn1ccc(-c2ccc(-c3cnc(OC4CC(C)(C)NC(C)(C)C4)nn3)c(O)c2)n1` [Cpd 108, 5-(1-methyl-1H-pyrazol-3-yl)-2-{3-[(2,2,6,6-tetramethylpiperidin-4-yl)oxy]-1,2,4-triazin-6-yl}phenol] is greater than 0.5 µM. For `CN(c1ncc(-c2ccc(-c3ccn4nncc4c3)cc2O)nn1)C1CC(C)(C)NC(C)(C)C1` [Cpd 152, 2-{3-[methyl(2,2,6,6-tetramethylpiperidin-4-yl)amino]-1,2,4-triazin-6-yl}-5-([1,2,3]triazolo[1,5-a]pyridin-5-yl)phenol], the IC50 is no more than 0.1 µM. The figure for `C[C@H](CF)N[C@H]1CCN(c2ncc(-c3ccc(-c4cn[nH]c4)cc3O)nn2)C1` [Cpd 329, 2-{3-[(3S)-3-{[(2R)-1-fluoropropan-2-yl]amino}pyrrolidin-l-yl]-1,2,4-triazin-6-yl}-5-(1H-pyrazol-4-yl)phenol] is 0.1 to 0.5 µM.

`CN(c1ncc(-c2ccc(-c3cncnc3)cc2O)nn1)C1CC(C)(C)NC(C)(C)C1` [Cpd 86, 2-{3-[methyl(2,2,6,6-tetramethylpiperidin-4-yl)amino]-1,2,4-triazin-6-yl}-5-(pyrimidin-5-yl)phenol]: the IC50 fell in the range of 0.1 to 0.5 µM. On to `CN(c1cnc(-c2ccc(-n3nccn3)cc2O)nn1)C1CC(C)(C)NC(C)(C)C1` [Cpd 255, 2-{6-[methyl(2,2,6,6-tetramethylpiperidin-4-yl)amino]-1,2,4-triazin-3-yl}-5-(2H-1,2,3-triazol-2-yl)phenol], for which the IC50 was no more than 0.1 µM. Consider `CN(c1ncc(-c2ccc(-c3cnn(C)c3)cc2O)nn1)[C@H]1C[C@]2(C)CC[C@](C)(C1)N2` [Cpd 408], for which the IC50 is no more than 0.1 µM. `CC(C)(C)N[C@@H]1CC[C@@H]2CN(c3ncc(-c4ccc(-c5cn[nH]c5)cc4O)nn3)C[C@@H]21` [Cpd 193, 2-{3-[(3aR,4R,6aS)-4-(tert-butylamino)hexahydrocyclopenta[c]pyrrol-2(1H)-yl]-1,2,4-triazin-6-yl}-5-(1H-pyrazol-4-yl)phenol]: the 50% inhibitory concentration (IC50) lay in the range of 1 to 3 µM.

In turn, `CN1CCC2(CC1)CN(c1ncc(-c3ccc(-c4ccc5nccn5n4)cc3O)nn1)C2` [Cpd 256, 5-(imidazo[1,2-b]pyridazin-6-yl)-2-[3-(7-methyl-2,7-diazaspiro[3.5]nonan-2-yl)-1,2,4-triazin-6-yl]phenol] registered a concentration for half-maximal inhibition (IC50) of 0.1 to 0.5 µM.

Regarding `CN(c1ncc(-c2ccc(-c3cn[nH]c3)cc2O)nn1)C1CCCNC1` (centres unmarked) [Cpd 20, 2-{3-[methyl(piperidin-3-yl)amino]-1,2,4-triazin-6-yl}-5-(1H-pyrazol-4-yl)phenol], the IC50 was greater than 0.5 µM.

`Cn1ncc2cc(-c3ccc(-c4cnc(NC5CC(C)(C)NC(C)(C)C5)nn4)c(O)c3)ccc21` [Cpd 319, 5-(1-methyl-1H-indazol-5-yl)-2-{3-[(2,2,6,6-tetramethylpiperidin-4-yl)amino]-1,2,4-triazin-6-yl}phenol] came in with an IC50 of no more than 0.1 µM.

In turn, `Cc1cc(-c2ccc(-c3cnc(N(C)C4CC(C)(C)NC(C)(C)C4)nn3)c(O)c2)nn2ccnc12` [Cpd 303, 5-(8-methylimidazo[1,2-b]pyridazin-6-yl)-2-{3-[methyl(2,2,6,6-tetramethylpiperidin-4-yl)amino]-1,2,4-triazin-6-yl}phenol] gave a half-maximal inhibitory concentration (IC50) of no more than 0.1 µM. The figure for `CC(C)(C)NC1CCN(c2ncc(-c3ccc(-c4ncco4)cc3O)nn2)C1` (centres unmarked) [Cpd 250, 2-{3-[3-(tert-butylamino)pyrrolidin-1-yl]-1,2,4-triazin-6-yl}-5-(1,3-oxazol-2-yl)phenol] is 0.1 to 0.5 µM.

`CN(C)[C@H]1CC[C@@H]2CN(c3ncc(-c4ccc(-c5cn[nH]c5)cc4O)nn3)C[C@@H]21` [Cpd 167, 2-{3-[(3aR,4S,6aS)-4-(dimethylamino)hexahydrocyclopenta[c]pyrrol-2(1H)-yl]-1,2,4-triazin-6-yl}-5-(1H-pyrazol-4-yl)phenol]: the IC50 is no more than 0.1 µM. The figure for `CC(C)(C)NC1CCN(c2cnc(-c3ccc(-c4c[nH]nc4F)cc3O)nn2)C1` (centres unmarked) [Cpd 374, 2-{6-[3-(tert-butylamino)pyrrolidin-1-yl]-1,2,4-triazin-3-yl}-5-(3-fluoro-1H-pyrazol-4-yl)phenol] is no more than 0.1 µM; for `Cc1cn(-c2ccc(-c3cnc(N4CCC(NC(C)C)C4)nn3)c(O)c2)cn1` (centres unmarked) [Cpd 326, 5-(4-methyl-1H-imidazol-1-yl)-2-(3-{3-[(propan-2-yl)amino]pyrrolidin-1-yl}-1,2,4-triazin-6-yl)phenol] it is no more than 0.1 µM. The figure for `CC1(C)CC(Nc2ncc(-c3ccc(-c4cn[nH]c4)cc3O)nn2)C(F)C(C)(C)N1` (centres unmarked) [Cpd 126, 2-{3-[(3-fluoro-2,2,6,6-tetramethylpiperidin-4-yl)amino]-1,2,4-triazin-6-yl}-5-(1H-pyrazol-4-yl)phenol] is no more than 0.1 µM; for `CC1(NC2CCN(c3ncc(-c4ccc(-c5cn[nH]c5)cc4O)nn3)C2)CCOCC1` (stereo not drawn) [Cpd 362, 2-(3-{3-[(4-methyloxan-4-yl)amino]pyrrolidin-l-yl}-1,2,4-triazin-6-yl)-5-(1H-pyrazol-4-yl)phenol] it is no more than 0.1 µM; for `CN(c1cnc(-c2ccc(-c3cnccn3)cc2O)nn1)C1CC(C)(C)NC(C)(C)C1` [Cpd 412, 2-{6-[methyl(2,2,6,6-tetramethylpiperidin-4-yl)amino]-1,2,4-triazin-3-yl}-5-(pyrazin-2-yl)phenol] it is no more than 0.1 µM. The same measure for `CN(c1ncc(-c2ccc(-c3cc(C#N)c4nccn4n3)cc2O)nn1)C1CC(C)(C)NC(C)(C)C1` [Cpd 344, 6-(3-hydroxy-4-{3-[methyl(2,2,6,6-tetramethylpiperidin-4-yl)amino]-1,2,4-triazin-6-yl}phenyl)imidazo[1,2-b]pyridazine-8-carbonitrile]: no more than 0.1 µM; for `CC(C)(C)NC1CCCN(c2ncc(-c3ccc(-c4cn[nH]c4)cc3O)nn2)C1` (centres unmarked) [Cpd 212, 2-{3-[3-(tert-butylamino)piperidin-1-yl]-1,2,4-triazin-6-yl}-5-(1H-pyrazol-4-yl)phenol]: 0.1 to 0.5 µM.

Take `CC1(C)CC(Nc2ncc(-c3ccc(-n4ccnc4)cc3O)nn2)CC(C)(C)N1` [Cpd 273, 5-(1H-imidazol-1-yl)-2-{3-[(2,2,6,6-tetramethylpiperidin-4-yl)amino]-1,2,4-triazin-6-yl}phenol]: the IC50 was no more than 0.1 µM.

As for `Cn1nnc(-c2ccc(-c3cnc(NC4CC(C)(C)NC(C)(C)C4)nn3)c(O)c2)n1` [Cpd 267, 5-(2-methyl-2H-tetrazol-5-yl)-2-{3-[(2,2,6,6-tetramethylpiperidin-4-yl)amino]-1,2,4-triazin-6-yl}phenol], the IC50 is no more than 0.1 µM. The same measure for `Cc1cn(-c2ccc(-c3cnc(N4CC5(CCN(C)CC5)C4)nn3)c(O)c2)cn1` [Cpd 228, 2-[3-(7-methyl-2,7-diazaspiro[3.5]nonan-2-yl)-1,2,4-triazin-6-yl]-5-(4-methyl-1H-imidazol-1-yl)phenol]: no more than 0.1 µM.

Take `CNC1CCN(c2ncc(-c3ccc(-c4cnn(C)n4)cc3O)nn2)C1` (centres unmarked) [Cpd 295, 2-{3-[3-(methylamino)pyrrolidin-1-yl]-1,2,4-triazin-6-yl}-5-(2-methyl-2H-1,2,3-triazol-4-yl)phenol]: the concentration for half-maximal inhibition (IC50) is no more than 0.1 µM. The figure for `CN(c1ncc(-c2ccc(-c3ccc4c(ncn4C)n3)cc2O)nn1)C1CC(C)(C)NC(C)(C)C1` [Cpd 164, 5-(1-methyl-1H-imidazo[4,5-b]pyridin-5-yl)-2-{3-[methyl(2,2,6,6-tetramethylpiperidin-4-yl)amino]-1,2,4-triazin-6-yl}phenol] is 0.1 to 0.5 µM. The figure for `Oc1cc(-c2cn[nH]c2)ccc1-c1cnc(N2CCC(NC3CC3)C2)nn1` (centres unmarked) [Cpd 137, 2-{3-[3-(cyclopropylamino)pyrrolidin-1-yl]-1,2,4-triazin-6-yl}-5-(1H-pyrazol-4-yl)phenol] is no more than 0.1 µM; for `Cc1cn(-c2ccc(-c3cnc(N4CCC(NC(C)(C)C)C4)nn3)c(O)c2)cn1` (stereo not drawn) [Cpd 197, 2-{3-[3-(tert-butylamino)pyrrolidin-l-yl]-1,2,4-triazin-6-yl}-5-(4-methyl-1H-imidazol-1-yl)phenol] it is 0.1 to 0.5 µM; for `CN(c1ncc(-c2ccc(-n3ncc4ccncc43)cc2O)nn1)C1CC(C)(C)NC(C)(C)C1` [Cpd 381, 2-{3-[methyl(2,2,6,6-tetramethylpiperidin-4-yl)amino]-1,2,4-triazin-6-yl}-5-(1H-pyrazolo[3,4-c]pyridin-1-yl)phenol] it is no more than 0.1 µM. The figure for `Cn1cnc(-c2ccc(-c3cnc(N4CCC(NC(C)(C)C)C4)nn3)c(O)c2)cc1=O` (centres unmarked) [Cpd 216, 6-(4-{3-[3-(tert-butylamino)pyrrolidin-1-yl]-1,2,4-triazin-6-yl}-3-hydroxyphenyl)-3-methylpyrimidin-4(3H)-one] is 0.1 to 0.5 µM. The molecule `Oc1cc(-c2cn[nH]c2)ccc1-c1cnc(N2CCC(CNC3CCOCC3F)C2)nn1` (centres unmarked) [Cpd 403, 2-[3-(3-{[(3-fluorooxan-4-yl)amino]methyl}pyrrolidin-1-yl)-1,2,4-triazin-6-yl]-5-(1H-pyrazol-4-yl)phenol] gave an IC50 of no more than 0.1 µM.

As for `CC1(NC2CCN(c3ncc(-c4ccc(-c5cn[nH]c5)cc4O)nn3)C2)COC1` (centres unmarked) [Cpd 325], the IC50 lay in the range of 0.1 to 0.5 µM.

Molecule `CN(c1ncc(-c2ccc(-c3ccnc(O)c3)cc2O)nn1)C1CC(C)(C)NC(C)(C)C1` [Cpd 5, 4-(3-hydroxy-4-{3-[methyl(2,2,6,6-tetramethylpiperidin-4-yl)amino}-1,2,4-triazin-6-yl}phenyl)pyridin-2-ol] displayed an IC50 of no more than 0.1 µM. The same measure for `Cc1cnn(-c2ccc(-c3cnc(N(C)C4CC(C)(C)NC(C)(C)C4)nn3)c(O)c2)n1` [Cpd 69, 2-{3-[methyl(2,2,6,6-tetramethylpiperidin-4-yl)amino]-1,2,4-triazin-6-yl}-5-(4-methyl-2H-1,2,3-triazol-2-yl)phenol]: no more than 0.1 µM.

The values are drawn from patent publication US11780839B2, “Compounds for treating Huntington's disease” (PTC THERAPEUTICS, INC., priority 2018, dated 2023).
